# Assay results from patent publication US9044491B2, “Method for improving blood flow using stilbenoid derivatives” (The Board of Trustees of the University of Arkansas, priority 2010, dated 2015).
# What was measured:
# [1] = test system: CLP or Control (Sham) mice; assay: Mean arterial pressure and heart rate by biotelemetry; format: in vivo, mouse
# Experimental: Mean arterial pressure (MAP) and heart rate (HR) were monitored continuously in conscious mice using biotelemetry. Transmitters (Data Sciences International, Minneapolis Minn.) were implanted into the carotid artery under isoflurane anesthesia and the animals were allowed to recover for 48 h. Mice were re-anesthetized with isoflurane and received CLP or Control (Sham) surgery. Cardiovascular parameters were recorded for 10 s every 5 min.
# [2] = test system: CLP or Control (Sham) mice; assay: Renal arterial blood flow by Doppler flow probe; format: in vivo, mouse
# Description: Under isoflurane anesthesia, the right kidney was exposed by flank incision and the renal artery and vein were carefully dissected from surrounding tissue with Dumont-5 forceps. The renal artery was isolated from the vein and a Transonic Systems (Ithaca, N.Y.) 0.5 PSL renal artery Doppler flow probe was positioned around the renal artery. The probe was calibrated in water using the zero and scale settings on the TS420 flowmeter (Transonic Systems). […] Body temperature was maintained at 36 to 37° C. with a heating lamp. Data were expressed in ml/min/g kidney weight.
# Renal blood flow was measured essentially as described above in Example 10 following CPL surgery or control treatment (no surgery). CPL-treated mice were administered 10 mg/kg of resveratrol, 2.5 mg/kg of resveratrol-3-sulfate, or vehicle. […] In fact, resveratrol-3-sulfate produced the same degree of reversal at 25% of the dose of resveratrol.
# human UGT1A1 = target: T1, human UGT1A1 (Homo sapiens, UniProt P22309); settings: 250 μM
# T1 sequence (P22309 26-533): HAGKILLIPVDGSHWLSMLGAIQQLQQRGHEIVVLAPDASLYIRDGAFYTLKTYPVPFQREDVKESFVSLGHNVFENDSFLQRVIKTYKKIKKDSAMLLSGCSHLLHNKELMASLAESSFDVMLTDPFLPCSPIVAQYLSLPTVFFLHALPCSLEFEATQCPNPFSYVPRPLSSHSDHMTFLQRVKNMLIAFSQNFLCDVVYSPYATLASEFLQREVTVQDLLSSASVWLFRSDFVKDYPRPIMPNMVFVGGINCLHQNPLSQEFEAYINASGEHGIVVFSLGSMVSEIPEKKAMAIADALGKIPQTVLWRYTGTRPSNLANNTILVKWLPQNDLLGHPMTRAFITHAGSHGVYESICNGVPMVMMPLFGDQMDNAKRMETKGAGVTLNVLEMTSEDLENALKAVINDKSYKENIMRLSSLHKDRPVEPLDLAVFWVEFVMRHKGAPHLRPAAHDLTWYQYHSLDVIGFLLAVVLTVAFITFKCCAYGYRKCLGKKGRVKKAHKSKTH
# Experimental: Eight human recombinant UGT1A isoforms (UGT1A1, 1A3, 1A4, 1A6, 1A7, 1A8, 1A9, and 1A10; 5 μg) expressed as His-tag proteins in baculovirus-infected Sf9 insect cells and human liver microsomes (from one donor; HL2; 50 μg) and human intestinal microsomes (from two donors; HI36 and HI41; 50 μg) were evaluated for their ability to glucuronidate these four compounds. The concentrations of the substrate and co-substrate (i.e., UDP-GlcUA) were 250 μM and 4 mM, respectively. Glucuronidation products were analyzed by HPLC and LCMS/MS.
# The kinetic constants of the glucuronidation reactions using recombinant human UGT1A1 and UGT1A10 were determined by measuring the enzyme activity in the presence of increasing concentrations of substrate (see FIG. 2).
# [3] = CLP mice, 3, 10, or 30 mg/kg i.p. at 5.5 hours
smiles,measurement,setting,value
"Oc1ccc(/C=C/c2cc(O)cc(O)c2)cc1 [tRes, trans-resveratrol]",heart rate (HR),[1]; [3],no effect
same,mean arterial pressure (MAP),[1]; [3],no effect
same,heart rate (HR),[1]; Control (Sham) mice,slightly increase
same,Renal Arterial Blood Flow (RBF),"[2]; CLP mice at 6 hours, 10 mg/kg via the penile vein at 5.5 hours",2.6 ± 0.6 mL/min/g
same,renal blood flow,"[2]; CPL-treated mice, 10 mg/kg (Example 15)",increased blood flow
same,Renal Arterial Blood Flow (RBF),"[2]; Control (Sham) mice, 10 mg/kg",without effect
same,glucuronide formation by UGT1A1,human UGT1A1,glucuronidated to 3-O— and 4′-O-Glucs
